pIC50: −log10 of the molar value. Structures can show the parent of a compound that is named as a salt.

In this experiment the target is Oplophorus-luciferin 2-monooxygenase catalytic subunit (Oplophorus gracilirostris, UniProt Q9GV45). Description: NanoLuc Inhibition Assay. As to the method: NanoLuc enzyme was diluted to 0.4 ng/mL in CO2 independent media + 10% FBS to make the detection reagent. A 3× dilution series of each inhibitor was then made in the detection reagent. A "no inhibitor" control was also made for each sample. A total of 50 μL of each inhibitor dilution was mixed with 50 μL of NanoGlo buffer containing 20 μM furimazine (final furimazine concentration is 10 μM, which is atKM), and luminescence was measured. Each sample was normalized to the "no inhibitor" control.
Chain of Oplophorus-luciferin 2-monooxygenase catalytic subunit (Q9GV45 whole entry): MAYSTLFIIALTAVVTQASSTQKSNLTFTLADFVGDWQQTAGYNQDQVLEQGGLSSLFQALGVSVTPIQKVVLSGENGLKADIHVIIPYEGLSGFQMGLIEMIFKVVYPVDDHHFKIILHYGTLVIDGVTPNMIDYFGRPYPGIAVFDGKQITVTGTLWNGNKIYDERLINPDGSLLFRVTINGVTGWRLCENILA
As for `CCN(C(=O)Cn1c(C(=O)Nc2cccc(C(=O)OC)c2)cc2sccc21)c1cccc(C)c1` [Methyl 3-(4-(2-(ethyl(m-tolyl)amino)-2-oxoethyl)-4H-thieno[3,2-b]pyrrole-5carboxamido)benzoate (11)], the pIC50 (as a rule, the negative decadic logarithm of the IC50, by convention in mol/L) was 4.97.

`CCc1cccc(N(CC)C(=O)Cn2c(C(=O)N[C@H]3CC[C@H](C(=O)OC)CC3)cc3ccccc32)c1` [Methyl trans-4-(1-(2-(ethyl(3-ethylphenyl)amino)-2-oxoethyl)-1H-indole-2carboxamido)cyclohexane-1-carboxylate (33)] showed a pIC50 of 8.27.

As for `CCN(C(=O)Cn1c(C(=O)N[C@H]2CC[C@H](C(=O)OC)CC2)cc2ccccc21)c1cccc(C)c1` [Methyl trans-4-(1-(2-(ethyl(m-tolyl)amino)-2-oxoethyl)-1H-indole-2-carboxamido)cyclohexane1-carboxylate (29)], the pIC50 was 7.44.

In turn, `CCN(C(=O)Cn1cccc1C(=O)N[C@H]1CC[C@H](C(=O)OC)CC1)c1cccc(C)c1` [Methyl trans-4-(1-(2-(ethyl(m-tolyl)amino)-2-oxoethyl)-1H-pyrrole-2carboxamido)cyclohexane-1-carboxylate (28)] had a pIC50 of 5.11.

`CCN(C(=O)Cn1c(C(=O)N[C@H]2CC[C@H](C(=O)OC)CC2)cc2ccc(OC)cc21)c1cccc(C)c1` [Methyl trans-4-(1-(2-(ethyl(m-tolyl)amino)-2-oxoethyl)-6-methoxy-1H-indole-2carboxamido)cyclohexane-1-carboxylate (30)] showed a pIC50 of 5.47.

For `COC(=O)[C@H]1CC[C@H](NC(=O)c2cc3sccc3n2CC(=O)N2CCCc3cc(C)ccc32)CC1` [Methyl trans-4-(4-(2-(6-methyl-3,4-dihydroquinolin-1(2H)-yl)-2-oxoethyl)-4Hthieno[3,2-b]pyrrole-5-carboxamido)cyclohexane-1-carboxylate (21)], the pIC50 is 4.69.

For the molecule `CCN(C(=O)Cn1c(C(=O)N[C@H]2CC[C@H](C(=O)OC)CC2)cc2sccc21)c1cccc(C(N)=O)c1` [Methyl trans-4-(4-(2-((3-carbamoylphenyl)(ethyl)amino)-2-oxoethyl)-4H-thieno[3,2-b]pyrrole5-carboxamido)cyclohexane-1-carboxylate (27)], the pIC50 is 6.62.

`CCN(C(=O)Cn1c(C(=O)N[C@H]2CC[C@H](C(=O)OC)CC2)cc2occc21)c1cccc(C)c1` [Methyl trans-4-(4-(2-(ethyl(m-tolyl)amino)-2-oxoethyl)-4H-furo[3,2-b]pyrrole-5carboxamido)cyclohexane-1-carboxylate (31)]: the pIC50 is 6.23.

In turn, `CCN(C(=O)Cn1c(C(=O)N[C@H]2CC[C@H](C(=O)OC)CC2)cc2sccc21)c1ccccc1C` [Methyl trans-4-(4-(2-(ethyl(o-tolyl)amino)-2-oxoethyl)-4H-thieno[3,2-b]pyrrole-5carboxamido)cyclohexane-1-carboxylate (19)] showed a pIC50 of 6.16.

`CCN(C(=O)Cn1c(C(=O)N[C@H]2CC[C@@H](C(=O)OC)CC2)cc2sccc21)c1cccc(C)c1` [Methyl-cis-4-(4-(2-(ethyl(m-tolyl)amino)-2-oxoethyl)-4H-thieno[3,2-b]pyrrole-5carboxamido)cyclohexane-1-carboxylate (9)] showed a pIC50 of 6.64.

In turn, `CCN(C(=O)Cn1c(C(=O)N[C@H]2CC[C@H](C(=O)NCCCCCCNC(=O)c3ccc4c(c3)C3(OC4)c4ccc(O)cc4Oc4cc(O)ccc43)CC2)cc2sccc21)c1cccc(C)c1` [N-(trans-4-((6-(3',6'-dihydroxy-3-oxo-3H-spiro[isobenzofuran-1,9'-xanthene]-5(6)carboxamido)hexyl)carbamoyl)cyclohexyl)-4-(2-(ethyl(m-tolyl)amino)-2-oxoethyl)-4Hthieno[3,2-b]pyrrole-5-carboxamide (47)] showed a pIC50 of 7.31.

Turning to `CCN(C(=O)Cn1c(C(=O)NC2CCC(C(=O)NCCCCCCN)CC2)cc2sccc21)c1cccc(C)c1` (stereo not drawn) [N-(trans-4-((6-aminohexyl)carbamoyl)cyclohexyl)-4-(2-(ethyl(m-tolyl)amino)-2-oxoethyl)-4Hthieno[3,2-b]pyrrole-5-carboxamide hydrochloride (40)], the pIC50 was 7.20.

As for `CCCCNC(=O)C1CCC(NC(=O)c2cc3sccc3n2CC(=O)N(CC)c2cccc(C)c2)CC1` (stereo not drawn) [N-(trans-4-(butylcarbamoyl)cyclohexyl)-4-(2-(ethyl(m-tolyl)amino)-2-oxoethyl)-4H-thieno[3,2b]pyrrole-5-carboxamide (34)], the pIC50 is 6.52.

In turn, `COCCOCCN(C(=O)Cn1c(C(=O)NC2CCCCC2)cc2sccc21)c1cccc(C)c1` [N-cyclohexyl-4-(2-((2-(2-methoxyethoxy)ethyl)(m-tolyl)amino)-2-oxoethyl)-4H-thieno[3,2b]pyrrole-5-carboxamide (14)] showed a pIC50 of 4.78.

Regarding `CCCCCCN(C(=O)Cn1c(C(=O)NC2CCCCC2)cc2sccc21)c1cccc(C)c1` [N-cyclohexyl-4-(2-(hexyl(m-tolyl)amino)-2-oxoethyl)-4H-thieno[3,2-b]pyrrole-5-carboxamide (16)], the pIC50 is 5.25.

`Cc1cccc(NC(=O)Cn2c(C(=O)NC3CCCCC3)cc3sccc32)c1` [N-cyclohexyl-4-(2-oxo-2-(m-tolylamino)ethyl)-4H-thieno[3,2-b]pyrrole-5-carboxamide (13)]: the pIC50 was 4.34.

On to `CCN(C(=O)Cn1c(C(=O)N2CCCCC2)cc2sccc21)c1cccc(C)c1` [N-ethyl-2-(5-(piperidine-1-carbonyl)-4H-thieno[3,2-b]pyrrol-4-yl)-N-(m-tolyl)acetamide (7)], for which the pIC50 is 5.59.

In turn, `CCN(C(=O)Cn1c(C(=O)N2CCCC2)cc2sccc21)c1cccc(C)c1` [N-ethyl-2-(5-(pyrrolidine-1-carbonyl)-4H-thieno[3,2-b]pyrrol-4-yl)-N-(m-tolyl)acetamide (6)] had a pIC50 of 5.92.

In turn, `CCN(C(=O)Cn1c(C(=O)N[C@H]2CC[C@H](C(=O)OC)CC2)cc2sccc21)c1cccc(C)c1` [trans-Methyl-4-(4-(2-(ethyl(m-tolyl)amino)-2-oxoethyl)-4H-thieno[3,2-b]pyrrole-5carboxamido)cyclohexane-1-carboxylate (8)] had a pIC50 of 6.82.
